How the values were obtained:
Format in all cases: functional
SF-268 = assay: Cytotoxicity against Homo sapiens (human) SF268 assessed as cell growth at 10^-4 M after 48 hr by Alamar Blue assay; conditions: SF-268, 48 h, read-out: Activity
MCF7 = assay: Cytotoxicity against Homo sapiens (human) MCF7 assessed as cell growth at 10^-4 M after 48 hr by Alamar Blue assay; conditions: MCF7, 48 h, read-out: Activity
NCI-H460 = assay: Cytotoxicity against Homo sapiens (human) NCI-H460 assessed as cell growth at 10^-4 M after 48 hr by Alamar Blue assay; conditions: NCI-H460, 48 h, read-out: Activity

## Clc1ccc(C2=NOC3=c4ccccc4=CSC3=C2c2ccccc2)cc1
SF-268
  growth at 100 µM: 95%
MCF7
  growth at 100 µM: 95%
NCI-H460
  growth at 100 µM: 92%

## O=[N+]([O-])c1ccc(C2=NOC3=c4ccccc4=CSC3=C2c2ccccc2)cc1
SF-268
  growth at 100 µM: 101%
MCF7
  growth at 100 µM: 62%
NCI-H460
  growth at 100 µM: 100%

## Cc1ccc(C2=C3SC=c4ccccc4=C3ON=C2c2ccccc2)cc1
SF-268
  growth at 100 µM: 69%
MCF7
  growth at 100 µM: 41%
NCI-H460
  growth at 100 µM: 94%

## Cc1ccc(C2=C3SC=c4ccccc4=C3ON=C2c2ccc([N+](=O)[O-])cc2)cc1
SF-268
  growth at 100 µM: 83%
MCF7
  growth at 100 µM: 97%
NCI-H460
  growth at 100 µM: 99%
